Like-named read-outs stand apart in the source and are kept apart here.
Target: T1, BCL6 (Homo sapiens, UniProt P41182)
T1 construct: endogenous in cells; host or cells: T47D breast cancer epithelial cells
Test: Immunofluorescence protocol for high content imaging of BCL6 (degradation) in T47D cells, 3 days compound treatment
Type: cell-based
Conditions: for Dmax: read-out: Mean Dmax (%)** category; for DC50: read-out: Mean DC50 (nM)* category
Summary of the method: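 High content immunofluorescence imaging (10×, 4 fields/well) of BCL6 using rabbit primary antibody, Alexa-488 secondary, cell mask and Hoechst nuclear stain after PFA fixation. Before staining, T47D cells (7K/well) were exposed for 3 days at 37° C to 3-fold serial dilutions of compound, top final concentration 0.1 or 1 μM.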

[1] = T47D cells, 3 days compound treatment

Row | SMILES | DC50 [1] [nM] | Dmax [1] [%] | Dmax (T47D) [%] | DC50 [nM]
1 | CNC(=O)COc1cc2cc(Nc3nc(N4CCC(OC5CCC6(CC5)CN(c5ccc(OC)c7c5CN(C5CCC(=O)NC5=O)C7=O)C6)CC4)ncc3Cl)ccc2n(C(C)C)c1=O (stereo not shown) [Compound 304, 2-{[6-({5-chloro-2-[4-({2-[2-(2,6-dioxopiperidin-3-yl)-7-methoxy-1-oxo-2,3-dihydro-1H-isoindol-4-yl]-2-azaspiro[3.5]nonan-7-yl}oxy)piperidin-1-yl]pyrimidin-4-yl}amino)-2-oxo-1-(propan-2-yl)-1,2-dihydroquinolin-3-yl]oxy}-N-methylacetamide] |  |  | 50 to 70 | < 10
2 | CNC(=O)COc1cc2cc(Nc3cc(N4CCC(O[C@H]5C[C@H](N6CCC(c7ccc8c(c7F)CN(C7CCC(=O)NC7=O)C8=O)CC6)C5)CC4)ncc3Cl)ccc2n(C(C)C)c1=O (stereo partly shown) [Compound 258, 2-({6-[(5-chloro-2-{4-[(1r,3r)-3-{4-[2-(2,6-dioxopiperidin-3-yl)-4-fluoro-1-oxo-2,3-dihydro-1H-isoindol-5-yl]piperidin-1-yl}cyclobutoxy]piperidin-1-yl}pyridin-4-yl)amino]-2-oxo-1-(propan-2-yl)-1,2-dihydroquinolin-3-yl}oxy)-N-methylacetamide] |  |  | 50 to 70 | < 10
3 | CNC(=O)COc1cc2cc(Nc3nc(N4CCC(O[C@H]5C[C@H](N6CC[C@@H](c7ccc8c(c7F)CN([C@H]7CCC(=O)NC7=O)C8=O)C[C@@H]6C)C5)CC4)ncc3Cl)ccc2n(C(C)C)c1=O [Compound 292, 2-({6-[(5-chloro-2-{4-[(1r,3r)-3-[(2S,4R)-4-{2-[(3S)-2,6-dioxopiperidin-3-yl]-4-fluoro-1-oxo-2,3-dihydro-1H-isoindol-5-yl}-2-methylpiperidin-1-yl]cyclobutoxy]piperidin-1-yl}pyrimidin-4-yl)amino]-2-oxo-1-(propan-2-yl)-1,2-dihydroquinolin-3-yl}oxy)-N-methylacetamide] |  |  | ≥ 70 | < 10
4 | CNC(=O)COc1cc2cc(Nc3nc(N4CCC(O[C@H]5C[C@H](N6C7CCC6CN(c6ccc8c(c6)C(=O)N(C6CCC(=O)NC6=O)C8=O)C7)C5)CC4)ncc3Cl)ccc2n(C(C)C)c1=O (stereo partly shown) [Compound 372, 2-({6-[(5-chloro-2-{4-[(1r,3r)-3-{3-[2-(2,6-dioxopiperidin-3-yl)-1,3-dioxo-2,3-dihydro-1H-isoindol-5-yl]-3,8-diazabicyclo[3.2.1]octan-8-yl}cyclobutoxy]piperidin-1-yl}pyrimidin-4-yl)amino]-2-oxo-1-(propan-2-yl)-1,2-dihydroquinolin-3-yl}oxy)-N-methylacetamide] |  |  | 50 to 70 | < 10
5 | CNC(=O)COc1cc2cc(Nc3nc(N4CCC(OC5CN([C@H]6CC[C@H](c7ccc8c(c7)C(=O)N(C7CCC(=O)NC7=O)C8=O)CC6)C5)CC4)ncc3Cl)ccc2n(C(C)C)c1=O (stereo partly shown) [Compound 341, 2-{[6-({5-chloro-2-[4-({1-[(1r,4r)-4-[2-(2,6-dioxopiperidin-3-yl)-1,3-dioxo-2,3-dihydro-1H-isoindol-5-yl]cyclohexyl]azetidin-3-yl}oxy)piperidin-1-yl]pyrimidin-4-yl}amino)-2-oxo-1-(propan-2-yl)-1,2-dihydroquinolin-3-yl]oxy}-N-methylacetamide] |  |  | 50 to 70 | 10 to 50
6 | CNC(=O)COc1cc2cc(Nc3nc(N4CCN(CC5CC6(CCN(c7ccc8c(c7F)CN(C7CCC(=O)NC7=O)C8=O)CC6)C5)CC4)ncc3Cl)ccc2n(C(C)C)c1=O (stereo not shown) [Compound 319, 2-{[6-({5-chloro-2-[4-({7-[2-(2,6-dioxopiperidin-3-yl)-4-fluoro-1-oxo-2,3-dihydro-1H-isoindol-5-yl]-7-azaspiro[3.5]nonan-2-yl}methyl)piperazin-1-yl]pyrimidin-4-yl}amino)-2-oxo-1-(propan-2-yl)-1,2-dihydroquinolin-3-yl]oxy}-N-methylacetamide] |  |  | 50 to 70 | < 10
7 | CNC(=O)COc1cc2cc(Nc3nc(N4CCC(O[C@H]5C[C@H](N6CCC(F)(c7ccc8c(c7F)CN(C7CCC(=O)NC7=O)C8=O)CC6)C5)CC4)ncc3Cl)ccc2n(C(C)C)c1=O (stereo partly shown) [Compound 278, 2-({6-[(5-chloro-2-{4-[(1r,3r)-3-{4-[2-(2,6-dioxopiperidin-3-yl)-4-fluoro-1-oxo-2,3-dihydro-1H-isoindol-5-yl]-4-fluoropiperidin-1-yl}cyclobutoxy]piperidin-1-yl}pyrimidin-4-yl)amino]-2-oxo-1-(propan-2-yl)-1,2-dihydroquinolin-3-yl}oxy)-N-methylacetamide] |  |  | ≥ 70 | < 10
8 | CNC(=O)COc1cc2cc(Nc3cc(N4CCC(O[C@H]5C[C@H](N6CCC(c7ccc8c(c7)C(=O)N(C7CCC(=O)NC7=O)C8=O)CC6)C5)CC4)ncc3Cl)ccc2n(C(C)C)c1=O (stereo partly shown) [Compound 243, 2-({6-[(5-chloro-2-{4-[(1r,3r)-3-{4-[2-(2,6-dioxopiperidin-3-yl)-1,3-dioxo-2,3-dihydro-1H-isoindol-5-yl]piperidin-1-yl}cyclobutoxy]piperidin-1-yl}pyridin-4-yl)amino]-2-oxo-1-(propan-2-yl)-1,2-dihydroquinolin-3-yl}oxy)-N-methylacetamide] |  |  | < 50 | 10 to 50
9 | CNC(=O)COc1cc2cc(Nc3nc(N4CCC(O[C@H]5C[C@H](N6CCC(c7c(F)cc8c(c7F)CN(C7CCC(=O)NC7=O)C8=O)CC6)C5)CC4)ncc3Cl)ccc2n(C(C)C)c1=O (stereo partly shown) [Compound 116, 2-({6-[(5-chloro-2-{4-[(1r,3r)-3-{4-[2-(2,6-dioxopiperidin-3-yl)-4,6-difluoro-1-oxo-2,3-dihydro-1H-isoindol-5-yl]piperidin-1-yl}cyclobutoxy]piperidin-1-yl}pyrimidin-4-yl)amino]-2-oxo-1-(propan-2-yl)-1,2-dihydroquinolin-3-yl}oxy)-N-methylacetamide] | < 10 | 50 to 70 |  | 
10 | CNC(=O)COc1cc2cc(Nc3nc(N4CCC(O[C@H]5C[C@H](N6CCC(c7cc(F)c8c(c7)C(=O)N(C7CCC(=O)NC7=O)C8)C(F)C6)C5)CC4)ncc3Cl)ccc2n(C(C)C)c1=O (stereo partly shown) [Compound 281, 2-({6-[(5-chloro-2-{4-[(1r,3r)-3-{4-[2-(2,6-dioxopiperidin-3-yl)-7-fluoro-3-oxo-2,3-dihydro-1H-isoindol-5-yl]-3-fluoropiperidin-1-yl}cyclobutoxy]piperidin-1-yl}pyrimidin-4-yl)amino]-2-oxo-1-(propan-2-yl)-1,2-dihydroquinolin-3-yl}oxy)-N-methylacetamide] |  |  | < 50 | 10 to 50
11 | CNC(=O)COc1cc2cc(Nc3nc(N4CCC(O[C@H]5C[C@H](N6CCC(c7ccc8c(c7F)[C@@H](C)N(C7CCC(=O)NC7=O)C8=O)CC6)C5)CC4)ncc3Cl)ccc2n(C(C)C)c1=O (stereo partly drawn) [Compound 289, 2-({6-[(5-chloro-2-{4-[(1r,3r)-3-{4-[(3R)-2-(2,6-dioxopiperidin-3-yl)-4-fluoro-3-methyl-1-oxo-2,3-dihydro-1H-isoindol-5-yl]piperidin-1-yl}cyclobutoxy]piperidin-1-yl}pyrimidin-4-yl)amino]-2-oxo-1-(propan-2-yl)-1,2-dihydroquinolin-3-yl}oxy)-N-methylacetamide] |  |  | ≥ 70 | < 10

Continued, in another order:

Row | DC50 [1] [nM] | Dmax [1] [%] | SMILES | Dmax (T47D) [%] | DC50 [nM]
12 | < 10 | 50 to 70 | CNC(=O)COc1cc2cc(Nc3nc(N4CCN(C(C)(C)C5CCN(c6cc7c(cc6OC)C(=O)N(C6CCC(=O)NC6=O)C7)CC5)CC4)ncc3Cl)ccc2n(C(C)C)c1=O (stereo not shown) [Compound 112, 2-{[6-({5-chloro-2-[4-(2-{1-[2-(2,6-dioxopiperidin-3-yl)-6-methoxy-1-oxo-2,3-dihydro-1H-isoindol-5-yl]piperidin-4-yl}propan-2-yl)piperazin-1-yl]pyrimidin-4-yl}amino)-2-oxo-1-(propan-2-yl)-1,2-dihydroquinolin-3-yl]oxy}-N-methylacetamide] |  | 
13 | < 10 | ≥ 70 | CNC(=O)COc1cc2cc(Nc3nc(N4CCC(O[C@H]5C[C@H](N6CCC(c7ccc8c(c7C)CN(C7CCC(=O)NC7=O)C8=O)CC6)C5)CC4)ncc3Cl)ccc2n(C(C)C)c1=O (stereo partly shown) [Compound 197] |  | 
14 | < 10 | 50 to 70 | CNC(=O)COc1cc2cc(Nc3nc(N4CCC(CN5CCC6(CC5)CN(c5cc7c(cc5F)C(=O)N(C5CCC(=O)NC5=O)C7)C6)CC4)ncc3Cl)ccc2n(C(C)C)c1=O (stereo not shown) [Compound 64, 2-{[6-({5-chloro-2-[4-({2-[2-(2,6-dioxopiperidin-3-yl)-6-fluoro-1-oxo-2,3-dihydro-1H-isoindol-5-yl]-2,7-diazaspiro[3.5]nonan-7-yl}methyl)piperidin-1-yl]pyrimidin-4-yl}amino)-2-oxo-1-(propan-2-yl)-1,2-dihydroquinolin-3-yl]oxy}-N-methylacetamide] |  | 
15 | < 10 | 50 to 70 | CNC(=O)COc1cc2cc(Nc3nc(N4CCC5(CC4)CC(C(=O)N4CCN(c6cccc7c6CN(C6CCC(=O)NC6=O)C7=O)CC4)C5)ncc3Cl)ccc2n(C(C)C)c1=O (stereo not shown) [Compound 27, 2-[(6-{[5-chloro-2-(2-{4-[2-(2,6-dioxopiperidin-3-yl)-1-oxo-2,3-dihydro-1H-isoindol-4-yl]piperazine-1-carbonyl}-7-azaspiro [3.5]nonan-7-yl)pyrimidin-4-yl]amino}-2-oxo-1-(propan-2-yl)-1,2-dihydroquinolin-3-yl)oxy]-N-methylacetamide] |  | 
16 | < 10 | < 50 | CNC(=O)COc1cc2cc(Nc3nc(N4CCC(CN5CCC6(CN(c7ccc8c(c7)C(=O)N(C7CCC(=O)NC7=O)C8=O)C6)C(F)C5)CC4)ncc3Cl)ccc2n(C(C)C)c1=O (stereo not shown) [Compound 134, 2-{[6-({5-chloro-2-[4-({2-[2-(2,6-dioxopiperidin-3-yl)-1,3-dioxo-2,3-dihydro-1H-isoindol-5-yl]-5-fluoro-2,7-diazaspiro[3.5]nonan-7-yl}methyl)piperidin-1-yl]pyrimidin-4-yl}amino)-2-oxo-1-(propan-2-yl)-1,2-dihydroquinolin-3-yl]oxy}-N-methylacetamide] |  | 
17 | < 10 | 50 to 70 | CNC(=O)COc1cc2cc(Nc3nc(N4CCN(CC5CCN(c6cc7c(c(OC)c6)C(=O)N(C6CCC(=O)NC6=O)C7)CC5)CC4)ncc3Cl)ccc2n(C(C)C)c1=O (stereo not shown) [Compound 26] |  | 

From US11986532B2 (Arvinas Operations, Inc., priority 2021, dated 2024)
